Patent US8598374B2, “GPR120 receptor agonists and uses thereof” (Metabolex, Inc, priority 2008, dated 2013)

Target: T1, human GPR120 (Homo sapiens, UniProt Q5NUL3)
T1 construct: Flag (DYKDDDDK) (N); host or cells: HEK293 cells co-expressing Gqi5
T1 sequence (Q5NUL3 1-361): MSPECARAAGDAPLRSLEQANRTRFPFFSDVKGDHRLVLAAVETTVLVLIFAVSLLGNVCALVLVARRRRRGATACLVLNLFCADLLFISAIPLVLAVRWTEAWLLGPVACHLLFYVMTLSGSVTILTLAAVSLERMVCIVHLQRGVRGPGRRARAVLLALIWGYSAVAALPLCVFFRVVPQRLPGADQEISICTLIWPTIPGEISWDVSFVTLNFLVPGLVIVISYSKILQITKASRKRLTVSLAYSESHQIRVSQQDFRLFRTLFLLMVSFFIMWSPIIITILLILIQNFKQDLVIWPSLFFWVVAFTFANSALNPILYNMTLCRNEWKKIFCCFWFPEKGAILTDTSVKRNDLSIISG
Experiment: Intracellular Ca2+ assay (FLIPR Calcium 4, Flexstation) in human GPR120 stable cell line
Assay type: cell-based
Conditions: % activity at 2.5 μM compared to the maximal activity of the compound of Example 25 at 2.5 μM; HEK293 cells co-expressing Gqi5
Description: Human GPR120 stable cell line was purchased from Multispan Inc (26219 Eden Landing Road, Hayward, Calif. 94545). This GPR120 cell line was generated in HEK293 cells co-expressing Gqi5. In this cell line, the Flag epitope tag (DYKDDDDK) was fused to the amino terminus of human GPR120 protein.
The concentration of intracellular Ca^2+ was measured as described below. Human GPR120 cells were plated in 96 well plates (Poly-D-Lysine coated black/clear Plate, Greiner Bio-One) at 70,000 cells per well and cultured overnight in conditions of 37° C. and 5% CO2. A Ca^2+ assay dye stock solution was prepared by adding 10 mL of assay buffer (HBSS/20 mM HEPES, pH 7.4) to FLIPR Calcium 4 Assay Bulk Kit (Molecular Devices). The 10 mL of Ca^2+ assay dye solution was prepared by further diluting 0.5 mL of Ca^2+ assay dye stock solution with 10 mL of assay buffer. The medium of the cells was removed and immediately 100 μL of the Ca^2+ assay dye solution was dispensed into each well followed by incubation at 37° C. and 5% CO2 for 50 minutes to incorporate the Ca^2+ dye into the cells. The cell plate was then placed in the Flexstation (Molecular Devices) for 20 minutes at 37° C. Compounds were dissolved in 100% DMSO and diluted to desired concentrations with assay buffer and placed in the Flexstation simultaneously with the cell plate for 20 minute incubation at 37° C. prior to reading. Fluorescence intensity was measured immediately following compound addition (25 μL/well) on the Flexstation at an excitation wavelength of 485 nm and an emission wavelength of 525 with 515 nm auto cutoff. The resulting increase in fluorescence intensities corresponds to increases in intracellular Ca^2+ levels.
Compounds were dissolved in 100% DMSO to a concentration of 20 mM to provide stock solutions. To determine activity against human GPR120, compounds were added with human GPR120 stably expressing cells (described above), at eight desired concentrations ranging from 0.00001 to 20 μM, in 96 well plates and fluorescence intensities were measured for 90 seconds with 2-second intervals. An EC50 value (concentration of the GPR120 agonist where 50% of the agonist's maximal activity is observed) was calculated using the changes (Max-Min) of fluorescence intensity.
To determine percent activity for a tested compound, the fluorescence intensity value obtained at a particular concentration were compared to the maximal fluorescence intensity value obtained for reference compound GW9508 (4-[[(3-phenoxyphenyl)methyl]amino]benzene propanoic acid; British Journal of Pharmacology 2006 148, 619-628) or the compound of Example 25. When GW9508 was used as the reference compound, the maximal activity of GW9508 at 6.7 μM was designated as 100% activity. When the compound of Example 25 was used as the reference compound, the maximal activity of the compound of Example 25 at 2.5 μM was designated as 100% activity. Typically, the GW9508 activity reached a maximum at a concentration of approximately 6.7 μM and typically the compound of Example 25 reached a maximum activity at approximately 2.5 μM.

**Q.** How did the “% Activity (Ex. 25 Reference Compound)” value turn out when `[2H]C([2H])(Oc1ccc(CC(C)C(=O)O)cc1F)c1cc(F)cc2c1OC(C)(C)C2` (stereo not drawn) [Example 230, 3-(4-(dideuterio(5-fluoro-2,2-dimethyl-2,3-dihydrobenzofuran-7-yl)methoxy)-3-fluorophenyl)-2-methylpropanoic acid] was run?
**A.** The value was 86.25%.

**Q.** How did the “% Activity (Ex. 25 Reference Compound)” value turn out when `Cc1cc(CCC(=O)O)c(C)c(C)c1OCc1cc(F)cc2c1OC(C)(C)C2` [Example 254, 3-(4-((5-fluoro-2,2-dimethyl-2,3-dihydrobenzofuran-7-yl)methoxy)-2,3,5-trimethylphenyl) propanoic acid] was run?
**A.** The value was 146.14%.

**Q.** Which “% Activity (Ex. 25 Reference Compound)” value does the source give for `CC(Cc1ccc(OCc2cc(Cl)cc3c2OCC3(C)C)cc1)C(=O)O` (stereo not drawn) [Example 148, 3-(4-((5-chloro-3,3-dimethyl-2,3-dihydrobenzofuran-7-yl)methoxy)phenyl)-2-methylpropanoic acid] here?
**A.** The value was 113.89%.

**Q.** How did the “% Activity (Ex. 25 Reference Compound)” value turn out when `CC1(C)Cc2cc(Cl)cc(COc3c(F)cc(C4CC4CC(=O)O)cc3F)c2O1` (stereo not drawn) [Example 41, 2-(2-(4-((5-chloro-2,2-dimethyl-2,3-dihydrobenzofuran-7-yl)methoxy)-3,5-difluorophenyl)cyclopropyl)acetic acid] was run?
**A.** The value was 116.46%.

**Q.** With `CCc1cc(OCc2cc(F)cc3c2OC(C)(C)C3)ccc1CCC(=O)O` [Example 134, 3-(2-ethyl-4-((5-fluoro-2,2-dimethyl-2,3-dihydrobenzofuran-7-yl)methoxy)phenyl)propanoic acid] as the molecule, how does the “% Activity (Ex. 25 Reference Compound)” value read?
**A.** The value was 151.44%.

**Q.** Which “% Activity (Ex. 25 Reference Compound)” value does the source give for `CC(C)Oc1ccc(Cl)cc1COc1ccc2c(c1)CCC2CC(=O)O` (stereo not drawn) [Example 258, 2-(5-((5-chloro-2-isopropoxybenzyl)oxy)-2,3-dihydro-1H-inden-1-yl)acetic acid] here?
**A.** Its value is 139.95%.

**Q.** How did the “% Activity (Ex. 25 Reference Compound)” value turn out when `CC1(C)Cc2cc(F)cc(COc3ccc4c(CC(=O)O)coc4c3)c2O1` [Example 262, 2-(6-((5-fluoro-2,2-dimethyl-2,3-dihydrobenzofuran-7-yl)methoxy)benzofuran-3-yl)acetic acid] was run?
**A.** The value was 137.39%.

**Q.** For `CC(C)C(CC(=O)O)c1ccc(OCc2cc(Cl)cc3c2OC(C)(C)C3)cc1` (stereo not drawn) [Example 266, 3-(4-((5-chloro-2,2-dimethyl-2,3-dihydrobenzofuran-7-yl)methoxy)phenyl)-4-methylpentanoic acid], which “% Activity (Ex. 25 Reference Compound)” value is on record?
**A.** Its value is 42.73%.

**Q.** For `CN(C)Cc1cc(OCc2cc(F)cc3c2OC(C)(C)C3)ccc1CCC(=O)O` [Example 122, 3-(2-((dimethylamino)methyl)-4-((5-fluoro-2,2-dimethyl-2,3-dihydrobenzofuran-7-yl)methoxy)phenyl)propanoic acid], which “% Activity (Ex. 25 Reference Compound)” value is on record?
**A.** The value was 3.58%.

**Q.** With `CC(C)Oc1cc(OCc2cc(F)cc3c2OC(C)(C)C3)ccc1CCC(=O)O` [Example 115, 3-(4-((5-fluoro-2,2-dimethyl-2,3-dihydrobenzofuran-7-yl)methoxy)-2-isopropoxyphenyl)propanoic acid] as the molecule, how does the “% Activity (Ex. 25 Reference Compound)” value read?
**A.** The value was 151.78%.

**Q.** How did the “% Activity (Ex. 25 Reference Compound)” value turn out when `COc1cc(OCc2cc(F)cc3c2OC(C)(C)C3)ccc1CCC(=O)O` [Example 50, 3-(4-((5-fluoro-2,2-dimethyl-2,3-dihydrobenzofuran-7-yl)methoxy)-2-methoxyphenyl)propanoic acid] was run?
**A.** Its value is 129.78%.

**Q.** Which “% Activity (Ex. 25 Reference Compound)” value does the source give for `CC(Cc1cc(F)c(OCc2cc(OCc3ccccc3)cc3c2OC(C)(C)C3)c(F)c1)C(=O)O` (stereo not drawn) [Example 111, 3-(4-((5-(benzyloxy)-2,2-dimethyl-2,3-dihydrobenzofuran-7-yl)methoxy)-3,5-difluorophenyl)-2-methylpropanoic acid] here?
**A.** Its value is 51.55%.

**Q.** `Cc1c(CCC(=O)O)ccc(OCc2cc(Cl)cc3c2CC(C)(C)O3)c1C` [Example 267, 3-(4-((6-chloro-2,2-dimethyl-2,3-dihydrobenzofuran-4-yl)methoxy)-2,3-dimethylphenyl)propanoic acid] was tested. Which “% Activity (Ex. 25 Reference Compound)” value did it give?
**A.** Its value is 140.82%.

**Q.** For `CC(CC(=O)O)Cc1ccc(OCc2cc(F)cc3c2OC(C)(C)C3)cc1` (stereo not drawn) [Example 182, 4-(4-((5-fluoro-2,2-dimethyl-2,3-dihydrobenzofuran-7-yl)methoxy)phenyl)-3-methylbutanoic acid], which “% Activity (Ex. 25 Reference Compound)” value is on record?
**A.** The value was 98.43%.

**Q.** Which “% Activity (Ex. 25 Reference Compound)” value does the source give for `CC(Cc1ccc(OCc2cc(F)cc3c2OC2(CCCC2)C3)cc1)C(=O)O` (stereo not drawn) [Example 162, 3-(4-((5-fluoro-3H-spiro[benzofuran-2,1′-cyclopentane]-7-yl)methoxy)phenyl)-2-methylpropanoic acid] here?
**A.** Its value is 154.48%.

**Q.** Which “% Activity (Ex. 25 Reference Compound)” value does the source give for `Cc1cc(OCc2cc(F)cc3c2OC(C)(C)C3)c(F)cc1CCC(=O)O` [Example 214, 3-(5-fluoro-4-((5-fluoro-2,2-dimethyl-2,3-dihydrobenzofuran-7-yl)methoxy)-2-methylphenyl)propanoic acid] here?
**A.** Its value is 143.21%.

**Q.** With `C[C@H](Cc1ccc(OCc2cc(F)cc3c2OC(C)(C)C3)cc1)C(=O)O` [Example 65, (R)-3-(4-((5-fluoro-2,2-dimethyl-2,3-dihydrobenzofuran-7-yl)methoxy)phenyl)-2-methylpropanoic acid] as the molecule, how does the “% Activity (Ex. 25 Reference Compound)” value read?
**A.** Its value is 141.04%.

**Q.** For `CC1(C)Cc2cc(Cl)cc(COc3ccc4c(c3)CC[C@@H]4CC(=O)O)c2O1` [Example 179, (R)-2-(5-((5-chloro-2,2-dimethyl-2,3-dihydrobenzofuran-7-yl)methoxy)-2,3-dihydro-1H-inden-1-yl)acetic acid], which “% Activity (Ex. 25 Reference Compound)” value is on record?
**A.** Its value is 105.44%.

**Q.** For `CC1(C)Cc2cc(F)cc(COc3ccc(C4CC4C(=O)O)cc3)c2O1` (single isomer, unassigned) [Example 131B, 2-(4-((5-fluoro-2,2-dimethyl-2,3-dihydrobenzofuran-7-yl)methoxy)phenyl)cyclopropanecarboxylic acid], which “% Activity (Ex. 25 Reference Compound)” value is on record?
**A.** Its value is 105.8%.

**Q.** Which “% Activity (Ex. 25 Reference Compound)” value does the source give for `CC(CC(=O)O)c1cc(F)c(OCc2cc(Cl)cc3c2OC(C)(C)C3)c(F)c1` (stereo not drawn) [Example 106, 3-(4-((5-chloro-2,2-dimethyl-2,3-dihydrobenzofuran-7-yl)methoxy)-3,5-difluorophenyl)butanoic acid] here?
**A.** Its value is 154.51%.

**Q.** For `CC(Cc1ccc(OCc2cc(F)cc3c2OC(C)(C)C3)cc1)C(=O)NO` (stereo not drawn) [Example 264, 3-(4-((5-fluoro-2,2-dimethyl-2,3-dihydrobenzofuran-7-yl)methoxy)phenyl)-N-hydroxy-2-methylpropanamide], which “% Activity (Ex. 25 Reference Compound)” value is on record?
**A.** Its value is 110.24%.

Same assay, conditions: human GPR120 stably expressing cells, eight concentrations from 0.00001 to 20 μM

**Q.** For `CC1(C)Cc2cc(Cl)cc(COc3ccc(CCC(=O)O)c(C(F)(F)F)c3)c2O1` [Example 62, 3-(4-((5-chloro-2,2-dimethyl-2,3-dihydrobenzofuran-7-yl)methoxy)-2-(trifluoromethyl)phenyl)propanoic acid], which EC50 is on record?
**A.** Its EC50 is 1 to 10 µM.

**Q.** `CC(Cc1ccc(OCc2ccc(F)c3c2OC(C)(C)C3)cc1)C(=O)O` (stereo not drawn) [Example 30, 3-(4-((4-fluoro-2,2-dimethyl-2,3-dihydrobenzofuran-7-yl)methoxy)phenyl)-2-methylpropanoic acid] was tested. Which EC50 did it give?
**A.** Its EC50 is 1 to 10 µM.

**Q.** Which EC50 does the source give for `CC(Cc1ccc(OCc2ccc(C(F)(F)F)c3c2OC(C)(C)C3)c(F)c1)C(=O)O` (stereo not drawn) [Example 33, 3-(4-((2,2-dimethyl-4-(trifluoromethyl)-2,3-dihydrobenzofuran-7-yl)methoxy)-3-fluorophenyl)-2-methylpropanoic acid] here?
**A.** The EC50 was 1 to 10 µM.

**Q.** For `COc1cc(OCc2cc(F)cc3c2OC(C)(C)C3)ccc1CCC(=O)O` [Example 50, 3-(4-((5-fluoro-2,2-dimethyl-2,3-dihydrobenzofuran-7-yl)methoxy)-2-methoxyphenyl)propanoic acid], which EC50 is on record?
**A.** The EC50 was 1 to 10 µM.

**Q.** Which EC50 does the source give for `C[C@H](Cc1ccc(OCc2cc(F)cc3c2OC(C)(C)C3)cc1)C(=O)O` [Example 65, (R)-3-(4-((5-fluoro-2,2-dimethyl-2,3-dihydrobenzofuran-7-yl)methoxy)phenyl)-2-methylpropanoic acid] here?
**A.** The EC50 was 1 to 10 µM.

Same assay, conditions: typical value, reference compound

**Q.** “4-[[(3-phenoxyphenyl)methyl]amino]benzene propanoic acid [GW9508, reference compound]” was tested. Which “concentration at which activity reached a maximum” value did it give?
**A.** The value was “approximately 6.7 μM”.
